Experimental data taken from patent US20130288956A1, “COMBINED PHARMACEUTICAL COMPOSITION AS ANTIFUNGAL AGENT” (priority 2010, published 2013).

Experiments:
C. albicans = assay: In vitro combination effects, checkerboard method by micro dilution (FIC index); type: cell-based, Candida albicans; details: C. albicans (20 strains); combination use with Test Compound 1
Description: (§1) A clinically isolated strain retained by the Medical Mycology Research Center of Chiba University (Code No. IFM) and a clinically isolated strain retained by the Life Science Research Center of Gifu University (Code No. E) were used as Candida and Aspergillus strains.
(§2) Fungus liquid obtained by static culturing at 35° C. for 48 hours in Sabouraud Dextrose liquid medium (SDB, Becton, Dickinson and Co.) was diluted with RPMI 1640 medium (Nissui Pharmaceutical Co., Ltd.) containing 0.165 M 3-(N-morpholino)propanesulfonic acid (MOPS) to prepare a fungus liquid having a fungus concentration of 1×10^3 cells/mL to 2×10^3 cells/mL.
(§3) Test Compound 1 (0.0005 μg/mL to 1.56 μg/mL) in the horizontal rows (12 wells) of a 96-well flat-bottom plate, and an antifungal agent in the form of ravuconazole (0.0015 μg/mL to 6.25 μg/mL), fluconazole (0.008 μg/mL to 32 μg/mL), voriconazole (0.0002 μg/mL to 8 μg/mL), micafungin (0.0005 μg/mL to 0.25 μg/mL), caspofungin (0.0005 μg/mL to 1 μg/mL) or amphotericin B (0.008 μg/mL to 8 μg/mL) in the vertical rows (8 wells) of the flat-bottom plate were prepared by diluting so as to blend together using RPMI 1640 medium containing 0.165 M MOPS to obtain a control group, a single Test Compound 1 group, each one of antifungal agents groups and combination groups of Test Compound 1+each one of antifungal agents.
(§4) The fungus liquids prepared in (1) were inoculated into the wells of 96-well flat-bottom plate containing 20 μL/well to 75 μL/well of the diluted test drug liquids prepared in (2) at 80 μL/well to 125 μL/well, followed by aerobically static culturing for 25 hours to 48 hours at 35° C.
(§5) Combination effects of Test Compound 1 and the antifungal agents were measured with the checkerboard method by micro dilution.
(§6) Interaction between both drugs was assessed by calculating the FIC index using the calculation formula indicated below.
(§7) The FIC index was calculated for each combination of antifungal agent concentrations that inhibited fungal growth, and the minimum value of the resulting FIC index was used as a combination FIC index.
(§8) A combination FIC index of 0.5 or less was evaluated as indicating synergistic action, that of 0.5 to 1 or less was evaluated as indicating additive action, and that of 1 to 4 or less was evaluated as indicating indifferent action.
(§9) FIC Index=(MIC value of drug A during combination use/MIC value of drug A when used alone)+(MIC value of drug B during combination use/MIC value of drug B when used alone) (Calculation Formula)

C. tropicalis = assay: as above; type: cell-based, Candida tropicalis; details: C. tropicalis (10 strains); combination use with Test Compound 1
Description: as §1, §2, §3, §4, §5, §6, §7, §8, §9

C. glabrata = assay: as above; type: cell-based, Candida glabrata; details: C. glabrata (10 strains); combination use with Test Compound 1
Description: as §1, §2, §3, §4, §5, §6, §7, §8, §9

A. fumigatus = assay: as above; type: cell-based, Aspergillus fumigatus; details: A. fumigatus (18 strains)
Description: as §1
(§10) An Aspergillus strain stored frozen at −80° C., or spores obtained by static culturing at 35° C. for 1 week in Potato Dextrose agar medium (PDA, Eiken Chemical Co., Ltd.) followed by scraping from the container with a metal loop, was diluted with RPMI 1640 medium containing 0.165 M MOPS to prepare a fungus liquid having a fungus concentration of 0.75×10^4 cells/mL to 1.33×10^4 cells/mL.
as §3, §4, §5, §6, §7, §8, §9

A. flavus = assay: as above; type: cell-based, Aspergillus flavus; details: A. flavus (4 strains), Table 1
Description: as §1, §10, §3, §4, §5, §6, §7, §8, §9

[1] = tested on: A. fumigatus strain IFM52108; assay: A. fumigatus respiratory tract infection model; type: in vivo, mice
Description: Female DBA/2N mice (age 8 weeks, Charles River Laboratories Japan, Inc.) were subcutaneously administered 200 mg/kg of 5-fluorouracil 5 or 6 days prior to infection in order to put the mice into a compromised state.
A. fumigatus strain IFM52108 and A. flavus strain IFM50915 were used.
A liquid containing spores of A. fumigatus strain IFM52108 stored at −80° C. was applied to Potato Dextrose agar medium (PDA, Eiken Chemical Co., Ltd.) followed by static culturing for 5 to 7 days at 35° C. and suspending in sterile physiological saline containing 0.05% Tween 80.
The number of spores was counted using a hemocytometer, and the liquid was diluted with sterile physiological saline containing 0.05% Tween 80 to a concentration of 1.2×10^6 cells/mL to 2.5×10^6 cells/mL to obtain an inoculation fungus liquid.
50 μl of inoculation fungus liquid were inoculated into the nasal cavities of 9-week-old mice at 0.3×10^5 cells/mouse to 1.25×10^5 cells/mouse under Ketalar anesthesia.
0.1 mL to 0.2 mL of each drug solution (dissolved in sterile physiological saline or 5% glucose solution, or dissolved in sterile physiological saline or 5% glucose solution containing 6.5% dimethylsulfoxide and 3.5% Tween 80) was administered to the individual and combination dose groups either into the peritoneal cavity or into the stomach using a gastric cannula corresponding to the administration route of the drug for 3 to 4 days at the rate of 1 to 2 times per day starting 0.5 hours to 1 hour after inoculation of fungus.
There were 5 to 9 animals in each group.
Infection protection results were assessed on survival rate 14 days after infection.

`C[C@@H](c1ncncc1F)[C@](O)(Cn1cncn1)c1ccc(F)cc1F` [Voriconazole, voriconazole] was tested, and the “Ratio indicating Additive effect of combination use with Test Compound 1” value (shortened to “Ratio indicating Additive effect”) (C. albicans) was 75%, the “Ratio indicating Antagonistic effect of combination use with Test Compound 1” value (“Ratio indicating Antagonistic effect” below) (C. albicans) was 0% and the “Ratio indicating Indifferent effect of combination use with Test Compound 1” value (from here on “Ratio indicating Indifferent effect”) (C. albicans) was 10%. For the same compound, the “Ratio indicating Synergistic effect of combination use with Test Compound 1” value (from here on “Ratio indicating Synergistic effect”) (C. albicans) was 15%, the “Ratio indicating Additive effect” value (C. tropicalis) was 0% and the “Ratio indicating Antagonistic effect” value (C. tropicalis) was 0%. The “Ratio indicating Indifferent effect” value (C. tropicalis) was 0%, the “Ratio indicating Synergistic effect” value (C. tropicalis) was 100% and the “Ratio indicating Additive effect” value (C. glabrata) was 60%. For the same compound, the “Ratio indicating Antagonistic effect” value (C. glabrata) was 0%, the “Ratio indicating Indifferent effect” value (C. glabrata) was 10% and the “Ratio indicating Synergistic effect” value (C. glabrata) was 30%. For the same compound, the “Ratio indicating Additive effect” value (A. fumigatus) was 28%, the “Ratio indicating Antagonistic effect” value (A. fumigatus) was 0% and the “Ratio indicating Indifferent effect” value (A. fumigatus) was 67%. For the same compound, the “Ratio indicating Synergistic effect” value (A. fumigatus) was 6%, the “Ratio indicating Additive effect” value (A. flavus) was 50% and the “Ratio indicating Antagonistic effect” value (A. flavus) was 0%. The “Ratio indicating Indifferent effect” value (A. flavus) was 50%, the “Ratio indicating Synergistic effect” value (A. flavus) was 0% and the 14-day survival rate ([1]; VRCZ 1 mg/kg) was 0%. The 14-day survival rate ([1]; VRCZ 2 mg/kg) was 20% and the “Combination effects in mouse Aspergillus fumigatus infection model” value ([1]; combination with the test compound of the invention) was “synergistic combination effects”.
